In general, melting point refers to the temperature of the solid-liquid transition.

Molecules are shown by their SMILES.

`O=C(NCC1(c2c(Cl)cc(Cl)cc2Cl)CC1)c1ncccc1C(F)(F)F` [A.29, N-[[1-(2,4,6-trichlorophenyl)cyclopropyl]methyl]-3-(trifluoromethyl)pyridine-2-carboxamide] came in with a melting point of 142 to 144 °C.
The compound `N#Cc1cc(F)c(C2(CNC(=O)c3ccccc3C(F)(F)F)CC2)c(F)c1` [A.57, N-[[1-(4-cyano-2,6-difluoro-phenyl)cyclopropyl]methyl]-2-(trifluoromethyl)benzamide] gave a melting point of 100 to 102 °C.
